Laboratory results as given in patent publication US8772500B2, “TRPV3 modulators” (AbbVie Inc., priority 2011, dated 2014).

Key:
[1] = In vitro rat microsomal stability assay; assay type: in vitro ADME, rat (Sprague-Dawley); details: Sprague-Dawley, rat, 0.5 h, 0.5 μM, pH 7.4
Method: (§1) Test compounds were evaluated for metabolic stability in an in vitro rat microsomal stability assay using rat (Sprague-Dawley, from BD Biosciences) liver microsomes and/or an in vitro human microsomal stability assay using human (Xenotech) liver microsomes. […] Incubations were carried out at 37° C. with a final incubation volume of 135 μL. […] A 1.5 μL aliquot of reduced nicotine adenine disphosphonucleotide (NADPH) (Chem-Impex Int'L Inc., Lot 12532024) was also added to the time-zero plates.

[2] = In vitro human microsomal stability assay; assay type: in vitro ADME; details: human, 0.5 h, 0.5 μM, pH 7.4
Method: as §1

| SMILES | RAT MICROSOMAL STABILITY (% REMAINING AFTER 30 MINUTES) [1] | HUMAN MICROSOMAL STABILITY (% REMAINING AFTER 30 MINUTES) [2] |
| --- | --- | --- |
| OC(c1ccccn1)C1(c2cccc(F)c2)CCCO1 (single isomer, unassigned) [Example 101, (syn)-[2-(3-fluorophenyl)tetrahydrofuran-2-yl](pyridin-2-yl)methanol] | 0.17% | 40% |
| OC(c1ccccn1)C1(C2CCOC2)CCC1 (stereo not drawn) [Example 284, pyridin-2-yl[1-(tetrahydrofuran-3-yl)cyclobutyl]methanol] | 16% | >85% |
| O=C1CC(c2ccc(F)c(Cl)c2)([C@H](O)c2ccccn2)C1 [Example 268, 3-(3-chloro-4-fluorophenyl)-3-[(S)-hydroxy(pyridin-2-yl)methyl]-cyclobutanone] | 82% | 66% |
| OC(C1CCCc2cccnc21)C1(c2cccc(OC(F)(F)F)c2)CCC1 (stereo not drawn) [Example 188, (syn)-5,6,7,8-tetrahydroquinolin-8-yl{1-[3-(trifluoromethoxy)phenyl]-cyclobutyl}methanol] | <0.01% | 0.16% |
| OC(C1CCCc2cccnc21)C1(c2ccccc2C(F)(F)F)CCC1 (stereo not drawn) [Example 195, (anti)-5,6,7,8-tetrahydroquinolin-8-yl{1-[2-(trifluoromethyl)phenyl]-cyclobutyl}methanol] | <0.01% | <0.01% |
| OC(C1CCCc2cccnc21)C1(c2ccccc2OC(F)(F)F)CCC1 (stereo not drawn) [Example 191, (anti)-5,6,7,8-tetrahydroquinolin-8-yl{1-[2-(trifluoromethoxy)phenyl]-cyclobutyl}methanol] | <0.01% | <0.01% |
| O[C@@H](c1ncccn1)C1(c2ccc(C(F)(F)F)cc2)CCC1 [Example 42, (R)-pyrimidin-2-yl{1-[4-(trifluoromethyl)phenyl]cyclobutyl}methanol] | 40% | 50% |
| OC(C1CCc2cccnc21)C1(c2ccc(C(F)(F)F)cc2)CCC1 (stereo not drawn) [Example 174, (syn)-6,7-dihydro-5H-cyclopenta[b]pyridin-7-yl{1-[4-(trifluoromethyl)-phenyl]cyclobutyl}methanol] | <0.01% | 26% |
| Nc1cccnc1C(O)C1(c2cccc(OC(F)(F)F)c2)CCC1 (stereo not drawn) [Example 124, (3-aminopyridin-2-yl){1-[3-(trifluoromethoxy)phenyl]cyclobutyl}methanol] | <0.01% | 1.6% |
| OC(c1ccccn1)C1(c2ccc(OC(F)(F)F)cc2)CCNCC1 (stereo not drawn) [Example 144, pyridin-2-yl{4-[4-(trifluoromethoxy)phenyl]piperidin-4-yl}methanol] | 51% | >85% |
| O=C1CC(c2ccc(C(F)(F)F)cc2)([C@@H](O)c2ccccn2)C1 [Example 165, 3-[(R)-hydroxy(pyridin-2-yl)methyl]-3-[4-(trifluoromethyl)phenyl]cyclobutanone] | 77% | 83% |
| O=C1CC(c2cccc(OC(F)(F)F)c2)([C@@H](O)c2ccccn2)C1 [Example 257, 3-[(R)-hydroxy(pyridin-2-yl)methyl]-3-[3-(trifluoromethoxy)phenyl]-cyclobutanone] | 57% | 42% |
| O[C@@H](c1ccccn1)C1(c2cc(C(F)(F)F)ccn2)CCC1 [Example 122, (R)-pyridin-2-yl{1-[4-(trifluoromethyl)pyridin-2-yl]cyclobutyl}methanol] | 26% | 28% |
| OC(C1CCc2cccnc21)C1(c2ccc(OC(F)(F)F)cc2)CCC1 (stereo not drawn) [Example 176, (syn)-6,7-dihydro-5H-cyclopenta[b]pyridin-7-yl{1-[4-(trifluoromethoxy)-phenyl]cyclobutyl}methanol] | <0.01% | 20% |
| OC(C1CCCc2cccnc21)C1(c2ccccc2C(F)(F)F)CCC1 (stereo not drawn) [Example 196, (syn)-5,6,7,8-tetrahydroquinolin-8-yl{1-[2-(trifluoromethyl)phenyl]-cyclobutyl}methanol] | <0.01% | <0.01% |
| OC(C1CCCc2cccnc21)C1(c2ccc(F)c(F)c2)CCC1 (stereo not drawn) [Example 170, (syn)-[1-(3,4-difluorophenyl)cyclobutyl][5,6,7,8-tetrahydroquinolin-8-yl]-methanol] | <0.01% | <0.01% |
| O=C1CC(c2cccc(C(F)(F)F)c2)([C@@H](O)c2ccccn2)C1 [Example 243, 3-[(R)-hydroxy(pyridin-2-yl)methyl]-3-[3-(trifluoromethyl)phenyl]-cyclobutanone] | 55% | 64% |
| O=C1CC(c2ccc(C(F)(F)F)cc2)([C@H](O)c2ccccn2)C1 [Example 164, 3-[(S)-hydroxy(pyridin-2-yl)methyl]-3-[4-(trifluoromethyl)phenyl]-cyclobutanone] | 81% | 71% |
| OC(c1ccccn1)C1(c2cccnc2)CCC1 (stereo not drawn) [Example 20, pyridin-2-yl(1-pyridin-3-ylcyclobutyl)methanol] | 81% | 80% |
| O=C1CC(c2cncc(C(F)(F)F)c2)(C(O)c2ccccn2)C1 (stereo not drawn) [Example 295, 3-[hydroxy(pyridin-2-yl)methyl]-3-[5-(trifluoromethyl)pyridin-3-yl]cyclobutanone] | 8.2% | 70% |
| OC(C1CCCc2cccnc21)C1(c2ccc(OC(F)(F)F)cc2)CCC1 (single isomer, unassigned) [Example 178, (syn)-5,6,7,8-tetrahydroquinolin-8-yl{1-[4-(trifluoromethoxy)phenyl]-cyclobutyl}methanol] | <0.01% | 9.2% |
